The source of these data is patent US12503440B2, “Nitroxoline derivative, preparation method therefor, and use thereof” (Jiangsu Yahong Meditech Co., Ltd., priority 2020, dated 2025).

What all share (assay type): cell-based
The test system of assay [1] is Bladder cancer cell line UM-UC-3. As to the kind of experiment: Inhibitory activity on cancer cells, CellTiter-Glo viability, 72 h. The following applies: Homo sapiens, UMUC3, UM-UC-3, 72 h. The source says: (§1) • HUVEC (purchased from Allcells Biological Technology (Shanghai) Co., Ltd.); UM-UC-3 (ATCC); LNCaP Clone FGC (ATCC); RM-1 (purchased from Nanjing Cobioer Biosciences Co., Ltd.) 2. Reagents • Endothelial cell complete medium (Allcells, H-004) • Medium RPMI1640 (ATCC, 30-2001) • Medium EMEM (ATCC, 30-2003) • Medium DMEM (Gibco, 12430-054) • Fetal bovine serum (Gibco, 10091148) • Penicillin-streptomycin double anti-body (Gibco, S110JV) • DPBS (Gibco, 14190-144) • CellTiter-Glo® kit (Promega, G7573) • Trypsin (0.25%), phenol red (Gibco, 25200-056) • DMSO (Sigma, D2650) 3. Instruments • Biological safety cabinet (Suzhou Antai Airtech Co., Ltd., BSC-1300A II) • Inverted microscope (Nikon, CKX53) • Automated cell counter (Life Technologies, countess II) • Multifunctional microplate reader (Biotek, H1FM) • Shaker (Hangzhou Allsheng Instruments Co., Ltd., OS-100) • GraphPad Prism 5.0 software • XLFIT 5.3 (Inforstack Shanghai Co., Ltd.) 4. Test Method
(§2) In this test method, the following experiments were carried out in a biological safety cabinet, and the specific steps are as follows: • (1) On the first day, the cells were seeded in a 96-well plate, and the previous medium was poured off. 5 mL of DPBS was added to wash the cells, and then removed by a pipette. Then, 1 mL of trypsin (0.25%) was added, and the plate was placed in a cell culture incubator at 37° C., 5% CO2 for digestion, and taken out after about 2 to 5 minutes. New corresponding medium was added, and pipetted to resuspend the cells evenly, and the cells were then counted with an automated cell counter.
(§3) The digestion was observed using an inverted microscope.
(§4) Regarding to HUVEC, the medium used was endothelial cell complete medium; regarding to UM-UC-3, the medium used was 89v % EMEM+10v % fetal bovine serum+1 v % penicillin-streptomycin double anti-body; regarding to LNcaP Clone FGC, the medium used was 89v % RPM11640+10v % fetal bovine serum+1 v % penicillin-streptomycin double anti-body; and regarding to RM-1, the medium used was 89v % DMEM+10v % fetal bovine serum+1v % penicillin-streptomycin double anti-body. • (2) HUVEC cells were seeded in columns 1 to 11 of a 96-well plate (Corning, Cat. No. 3610) at a density of 2000 cells per well in 100 μL of medium, and the medium free of cell was added to the wells of column 12. The other three types of cells were also seeded, wherein UM-UC-3 and RM-1 cells were seeded at a density of 3000 cells per well, and LNCap Clone FGC cells were seeded at a density of 5000 cells per well. Then, the plate was placed in an incubator at 37° C., 5% CO2 for 24 hours. • (3) On the second day, the compounds of the present invention and the reference drug nitroxoline (obtained according to the preparation method disclosed in the prior art) were diluted in gradient (2.5 folds, started at 100 μmol) to obtain 8 dose points (there were a total of 8 columns of wells; the first column of wells had the highest concentration, the concentration decreased in turn, and the last column of wells had the lowest concentration). 10 uL of the compound diluted in gradient was added to the 100 μL of cells in column 1 to column 10 with an 8-channel pipette. 10 μL of the corresponding medium containing 0.33v % DMSO was added to column 11 and column 12. The plate was incubated in an incubator at 37° C., 5% CO2 for 72 hours (note: column 11 was used as MAX well with cells and no compounds; and column 12 was used as MIN well with no cells and no compounds). • (4) After treating with the compounds of the present invention for 72 hours, the cell viability detection reagents in the above CellTiter-Glo® kit were added to the 96-well plate at 50 μL per well according to the instructions. […]
For orientation: In ATP-based viability assays light output follows the ATP content of the culture.

Assay [2] concerns Mouse prostate cancer cell line RM-1. Described as above. Conditions: RM-1, 72 h.
Excerpt: as §1, §2, §3, §4

For assay [3], the system named is Prostate cancer cell line LNcaP Clone FGC. The description is as above. Conditions: Homo sapiens.
Excerpt: as §1, §2, §3, §4

The test system of assay [4] is Endothelial cell line HUVEC. As to the kind of experiment: Inhibitory activity on cells, CellTiter-Glo viability, 72 h. The following applies: Homo sapiens.
Excerpt: as §1, §2, §3, §4

In assay [5] the test system is Acinetobacter baumannii. As to the kind of experiment: Bacteriostatic activity, micro broth dilution MIC (CLSI). Conditions: 20 hours; for MIC50 / MIC90: clinical strains (carbapenem-resistant), CAMHB; for MIC50: read-out: Acinetobacter baumannii Clinical strain MIC50; for MIC90: read-out: Acinetobacter baumannii Clinical strain MIC90; for MIC: standard strain ATCC19606, CAMHB. How it is done: (§5) The purpose of this test is to determine the bacteriostatic activity of the compounds of the present invention against a representative panel of strains (Gram-negative bacteria: […] ATCC 25922, Acinetobacter baumannii ATCC 19606; Gram-positive bacteria: Staphylococcus aureus ATCC29213). Bacteriostatic activity was determined by minimum inhibitory concentration (MIC), MIC50, MIC90. This test was entrusted to Shanghai Junj Lab Co., Ltd. Except for the test drugs, all other test materials were provided by Shanghai Junj Lab Co., Ltd.
(§6) The tested bacteria were several strains of clinically isolated carbapenem-resistant Escherichia coli, several strains of carbapenem-resistant Acinetobacter baumannii, several strains of methicillin-resistant Staphylococcus aureus, and several strains of sensitive Staphylococcus aureus. Duplicate strains isolated from the same patient were eliminated. There were also three quality control strains Escherichia coli ATCC 25922, Acinetobacter baumannii ATCC 19606, and Staphylococcus aureus ATCC 29213. The activity test of each compound was carried out on one or more strains of each of the above test bacteria.
(§7) According to the recommendations of relevant documents of the American Clinical and Laboratory Standards Institute (CLSI), the micro broth dilution method was used to determine the MIC of the compounds of the present invention against clinically isolated strains. The culture solution free of drug was used as the test bacteria positive control, the culture solution free of bacterial solution was used as the drug negative control, and the culture solution free of drug solution and bacterial solution was used as the blank control. • 4.1 Formulation of antibacterial drug: All the compounds of the present invention were dissolved in DMSO. The drug concentration range was 128 mg/L-0.06 mg/L. Specific method: The compounds of the present invention were successively diluted by 1:1 with DMSO to obtain an intermediate series with a range of 25600 mg/L-12.5 mg/L. 30 μL of solution from each tube of the intermediate series of each compound was added to a 3 mL/tube series of single broth tube, and mixed well to obtain an intermediate series with a range of 256 mg/L to 0.125 mg/L. The diluted series solution was added to the drug susceptibility plate line by line, 50 μL of solution per well. All ranges became investigated ranges after being mixed with an equal volume of bacterial solution: 128-0.06 mg/L. • 4.2 Culture medium: The drug susceptibility test used cation adjusted Mueller-Hinton broth (CAMHB). • 4.3 Amount of inoculum: The test bacteria cultured overnight were adjusted to 0.5 McFarland turbidity by the direct colony suspension method, and diluted 100 folds, the final inoculum amount was 10^5 CFU/mL. • 4.4 Culture conditions: The test bacteria were cultured at 35±2° C. for 20 hours in air. 5. Interpretation and Judgment of Results
(§8) The drug susceptibility test results were interpretated by reference to CLSI 2019 edition M100 29th edition criteria.
(§9) The results of drug susceptibility test were statistically analyzed by WHONET version 5.6 software.
(§10) The culture solution free of bacterial solution was used as the drug negative control, and the culture solution free of drug solution and bacterial solution was used as the blank control, wherein no bacteria grew in both solutions.

Assay [6] concerns Escherichia coli. The assay is described as above. The following applies: 20 hours; for MIC50 / MIC90: clinical strains (carbapenem-resistant), CAMHB; for MIC50: read-out: Escherichia coli Clinical strain MIC50; for MIC90: read-out: Escherichia coli Clinical strain MIC90; for MIC: standard strain ATCC25922, CAMHB. On the procedure: as §5, §6, §7, §8, §9, §10
Assay [7] concerns Staphylococcus aureus. Described as above. The following applies: 20 hours; for MIC50 / MIC90: clinical strains (methicillin-resistant and sensitive), CAMHB; for MIC50: read-out: Staphylococcus aureus Clinical strain MIC50; for MIC90: read-out: Staphylococcus aureus Clinical strain MIC90; for MIC: standard strain ATCC29213, CAMHB. How it is done:
as §5, §6, §7, §8, §9, §10

Converted amounts (≈) assume the structure as drawn.

One may read the IC50 as the midpoint of a concentration-inhibition curve. The low end stands for inhibition by little substance, the high end for a need for much substance. Take `O=[N+]([O-])c1ccc(O)c2nccc(-c3cccnc3)c12` [Example 17, 5-nitro-4-(pyridin-3-yl)quinolin-8-ol]: the IC50 was found to be 4.9 µM in assay [1], 2.8 µM in assay [2] and 4.8 µM in assay [3].

Consider `O=[N+]([O-])c1ccc(O)c2nccc(-c3ccncc3)c12` [Example 14, 5-nitro-4-(pyridin-4-yl)quinolin-8-ol], for which the results for the IC50 in assay [1] and in assay [3] were 5 µM and 3.8 µM, respectively.

In the case of `O=[N+]([O-])c1ccc(O)c2ncccc12` [Nitroxoline, 5-nitro-8-hydroxyquinoline], the IC50 in assay [4] is 4.5 µM; in assay [1], 9.2 µM; in assay [2], 4.3 µM; in assay [3], 5.1 µM.

In general, MIC50 refers to the lowest concentration that inhibits either 50% of growth or 50% of the strains tested, depending on the study. By MIC90 is commonly meant the lowest concentration that inhibits either 90% of growth or 90% of the strains tested, depending on the study. A word on the MIC: it is the lowest concentration found to suppress growth. Lower therefore signals greater potency. Take `O=[N+]([O-])c1ccc(O)c2nccc(-c3ccccc3)c12` [Example 9, 5-nitro-4-phenylquinolin-8-ol]: the IC50 in assay [4] amounted to 1.3 µM; in assay [1] it was 0.5 µM; in assay [2], 1 µM; in assay [3] it was 1.7 µM. For the same compound, the MIC50 in assay [5] turned out to be 128 µg/mL (≈ 481 µM); in assay [6], 128 µg/mL (≈ 481 µM); in assay [7], 4 µg/mL (≈ 15 µM). Moreover, the MIC90 in assay [5] is 128 µg/mL (≈ 481 µM); in assay [6] it was 128 µg/mL (≈ 481 µM); in assay [7], 8 µg/mL (≈ 30 µM). The compound also came in with an MIC in assay [7] of 4 µg/mL (≈ 15 µM).

With `CCOC(=O)N1CCN(c2ccnc3c(O)ccc([N+](=O)[O-])c23)CC1` [Example 22, ethyl 4-(8-hydroxy-5-nitroquinolin-4-yl)piperazine-1-carboxylate], the IC50 in assay [4] amounted to 3 µM; in assay [1], 4 µM; in assay [2] it was 2.7 µM; in assay [3] it was 2.7 µM.

Regarding `CC1CCCCN1c1ccnc2c(O)ccc([N+](=O)[O-])c12` (stereo not shown) [Example 13, 4-(2-methylpiperidin-1-yl)-5-nitroquinolin-8-ol], the IC50 in assay [4] stood at 2.5 µM; in assay [1], 1.6 µM; in assay [2], 2 µM; in assay [3] it was 1.2 µM.

With `O=[N+]([O-])c1ccc(O)c2nccc(N3CCNCC3)c12` [Example 10, 5-nitro-4-(piperazin-1-yl)quinolin-8-ol], in assay [1], the concentration for half-maximal inhibition (IC50) was 3 µM.

`O=[N+]([O-])c1ccc(O)c2nccc(Cl)c12` [Example 2, 4-chloro-5-nitroquinolin-8-ol]: the IC50 in assay [4] worked out at 3 µM; in assay [1] it was 2 µM; in assay [2], 3.1 µM; in assay [3], 4.9 µM. The MIC50 in assay [5] stood at 4 µg/mL (≈ 17.8 µM); in assay [6], 8 µg/mL (≈ 35.6 µM); in assay [7], 4 µg/mL (≈ 17.8 µM). For the same compound, the MIC90 in assay [5] amounted to 8 µg/mL (≈ 35.6 µM); in assay [6], 8 µg/mL (≈ 35.6 µM); in assay [7], 4 µg/mL (≈ 17.8 µM). Also, the MIC in assay [6] worked out at 8 µg/mL (≈ 35.6 µM).

Take `O=[N+]([O-])c1ccc(O)c2nccc(C3CCCC3)c12` [Example 24, 4-cyclopentyl-5-nitroquinolin-8-ol]: the half-maximal inhibitory concentration (IC50) in assay [4] is 1.4 µM; in assay [1] it was 1.7 µM; in assay [2] it was 1 µM; in assay [3], 0.8 µM. Moreover, the MIC50 was found to be 32 µg/mL (≈ 124 µM) in assay [5], 32 µg/mL (≈ 124 µM) in assay [6] and 4 µg/mL (≈ 15.5 µM) in assay [7]. For the same compound, the MIC90 in assay [5] worked out at 64 µg/mL (≈ 248 µM); in assay [6], 64 µg/mL (≈ 248 µM); in assay [7] it was 4 µg/mL (≈ 15.5 µM). The MIC in assay [5] came to 32 µg/mL (≈ 124 µM); in assay [6], 64 µg/mL (≈ 248 µM); in assay [7], 4 µg/mL (≈ 15.5 µM).

Turning to `O=[N+]([O-])c1ccc(O)c2nccc(N3CCOCC3)c12` [Example 5, 4-morpholino-5-nitroquinolin-8-ol], the IC50 in assay [1] and in assay [3] was 5.5 µM in each case.

With `COc1ccnc2c(O)ccc([N+](=O)[O-])c12` [Example 16, 4-methoxy-5-nitroquinolin-8-ol], the IC50 in assay [1] turned out to be 1.5 µM; in assay [2], 2.1 µM; in assay [3], 1.8 µM. Moreover, the MIC50 in assay [5] was found to be 32 µg/mL (≈ 145 µM); in assay [6], 32 µg/mL (≈ 145 µM); in assay [7], 4 µg/mL (≈ 18.2 µM). In addition, the MIC90 was determined as 32 µg/mL (≈ 145 µM) in assay [5], 32 µg/mL (≈ 145 µM) in assay [6] and 4 µg/mL (≈ 18.2 µM) in assay [7]. In addition, the MIC in assay [5] turned out to be 32 µg/mL (≈ 145 µM); in assay [6], 32 µg/mL (≈ 145 µM); in assay [7], 4 µg/mL (≈ 18.2 µM).
